# Target: Acyl-homoserine lactone acylase PvdQ [A190E,F674L] (Pseudomonas aeruginosa, UniProt Q9I194, A190E/F674L)
# Assay: PvdQ IC50 Assay
# Procedure: The assay was performed with nine compound concentrations that ranged from 3 nM to 19.5 µM with PvdQ concentration of 20 nM. The positive control, isopropyl dodecylfluorophosphonate (IDFP), was added in 24 selective wells to a final concentration of 200 µM. The assay plates were initially read at time = 0 and then incubated for 60 min at RT. The plates were read again at time = 60 min.
# Acyl-homoserine lactone acylase PvdQ [A190E,F674L], sequence (Q9I194 whole entry, looked up, stated change not applied): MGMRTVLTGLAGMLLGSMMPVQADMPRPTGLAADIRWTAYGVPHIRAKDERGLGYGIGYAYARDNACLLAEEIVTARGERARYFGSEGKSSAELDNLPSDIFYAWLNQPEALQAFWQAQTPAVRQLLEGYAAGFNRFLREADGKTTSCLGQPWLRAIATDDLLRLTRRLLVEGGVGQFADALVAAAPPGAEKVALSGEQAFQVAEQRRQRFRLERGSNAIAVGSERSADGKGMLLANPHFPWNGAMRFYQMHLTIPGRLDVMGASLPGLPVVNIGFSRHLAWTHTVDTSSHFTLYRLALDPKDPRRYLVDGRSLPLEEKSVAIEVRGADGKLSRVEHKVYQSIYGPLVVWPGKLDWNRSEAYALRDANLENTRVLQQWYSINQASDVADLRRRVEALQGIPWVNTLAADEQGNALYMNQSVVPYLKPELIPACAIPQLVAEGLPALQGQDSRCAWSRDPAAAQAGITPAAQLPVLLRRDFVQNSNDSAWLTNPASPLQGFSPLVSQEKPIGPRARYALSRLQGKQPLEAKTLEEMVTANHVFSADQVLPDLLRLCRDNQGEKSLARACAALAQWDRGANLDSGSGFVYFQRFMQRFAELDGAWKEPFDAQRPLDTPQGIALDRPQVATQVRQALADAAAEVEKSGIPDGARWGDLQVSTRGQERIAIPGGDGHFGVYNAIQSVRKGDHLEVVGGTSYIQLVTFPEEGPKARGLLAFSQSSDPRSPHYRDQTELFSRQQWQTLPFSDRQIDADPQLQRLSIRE
row,Compound,IC50
1,N#CC(c1ccc(C(F)(F)F)cc1)c1ccc(C(F)(F)F)c(Cl)n1 (stereo not given) [2-(6-Chloro-5-(trifluoromethyl)pyridin-2-yl)-2-(4-(trifluoromethyl)phenyl)acetonitrile (28)],2300 nM
2,CCCCC(C#N)c1ccccn1 (stereo not given) [2-(Pyridin-2-yl)hexanenitrile (51)],8400 nM
3,N#CC(c1ccc(Cl)cc1)c1cccc(C(F)(F)F)n1 (stereo not given) [2-(4-Chlorophenyl)-2-(6-(trifluoromethyl)pyridin-2-yl)acetonitrile (16)],10 nM
4,N#CC(c1ccc(Cl)cc1)c1ccc(C(F)(F)F)c(Cl)n1 (stereo not given) [2-(6-Chloro-5-(trifluoromethyl)pyridin-2-yl)-2-(4-chlorophenyl)acetonitrile (21)],620 nM
5,"N#CC(c1ccc(Cl)cc1Cl)c1ncccc1Cl (stereo not given) [2-(3-Chloropyridin-2-yl)-2-(2,4-dichlorophenyl) acetonitrile (35)]",210 nM
6,"N#CC(c1cccc(Cl)n1)c1ccc(Cl)cc1Cl (stereo not given) [2-(6-Chloropyridin-2-yl)-2-(2,4-dichlorophenyl) acetonitrile (12)]",250 nM
7,N#CC(CC1CC1)c1ccc(Cl)cc1 (stereo not given) [2-(4-Chlorophenyl)-3-cyclopropylpropanenitrile (40)],540 nM
8,N#Cc1cccc(C(C#N)c2ccc(F)cc2)n1 (stereo not given) [6-(Cyano(4-fluorophenyl)methyl)picolinonitrile (25)],130 nM
9,CCCCC(C#N)c1ccc(F)cc1 (stereo not given) [2-(4-Fluorophenyl)hexanenitrile (46)],320 nM
10,Cc1ccc(C(C#N)c2ccc(Cl)cc2)nc1C#N (stereo not given) [6-((4-Chlorophenyl)(cyano)methyl)-3-methyl picolinonitrile (22)],180 nM
11,CCCCC(c1ccc(Cl)cc1)c1nnn[nH]1 (stereo not given) [5-(1-(4-Chlorophenyl)pentyl)-1H-tetrazole (53)],6700 nM
12,N#Cc1cccc(C(C#N)c2ccc(Cl)cc2F)n1 (stereo not given) [6-((4-Chloro-2-fluorophenyl)(cyano)methyl) picolinonitrile (30)],110 nM
13,N#CC(c1ccc(Cl)cc1)c1ccc(C(F)(F)F)cn1 (stereo not given) [2-(4-Chlorophenyl)-2-(5-(trifluoromethyl)pyridin-2-yl)acetonitrile (20)],2400 nM
14,N#Cc1ccc(C(C#N)c2ccc(Cl)cc2)nc1 (stereo not given) [6-((4-Chlorophenyl)(cyano)methyl)nicotinonitrile (23)],2500 nM
15,CCCCC(C#N)c1ccc(Cl)cn1 (stereo not given) [2-(5-Chloropyridin-2-yl)hexanenitrile (49)],3800 nM
16,COCCOCCC(C#N)c1ccc(Cl)cc1 (stereo not given) [2-(4-Chlorophenyl)-4-(2-methoxyethoxy)butanenitrile (42)],4700 nM
17,CC(C#N)(c1ccc(Cl)cc1)c1ccc(C(F)(F)F)cn1 (stereo not given) [2-(4-Chlorophenyl)-2-(5-(trifluoromethyl)pyridin-2-yl)propanenitrile (54)],1100 nM
18,"N#CC1c2ccc(Cl)cc2CCc2cccnc21 (stereo not given) [8-Chloro-6,11-dihydro-5H-benzo[5,6]cyclohepta[1,2-b]pyridine-11-carbonitrile (55)]",9100 nM
19,N#CC(c1cccc(Cl)n1)c1ccccc1OC(F)(F)F (stereo not given) [2-(6-Chloropyridin-2-yl)-2-(2-(trifluoromethoxy)-phenyl)acetonitrile (11)],1700 nM
20,COCCC(C#N)c1ccc(F)cc1 (stereo not given) [2-(4-Fluorophenyl)-4-methoxybutanenitrile (47)],290 nM

row,Compound,IC50
1,COCCC(C#N)c1ccc(Cl)cc1 (stereo not given) [2-(4-Chlorophenyl)-4-methoxybutanenitrile (41)],4800 nM
2,Clc1ccc(C(c2cccc(Cl)n2)c2nnn[nH]2)cc1 (stereo not given) [2-Chloro-6-((4-chlorophenyl)(1H-tetrazol-5-yl)-methyl)pyridine (52)],3400 nM
3,N#CC(c1ccc(F)cc1)c1ccc(C(F)(F)F)c(Cl)n1 (stereo not given) [2-(6-Chloro-5-(trifluoromethyl)pyridin-2-yl)-2-(4-fluorophenyl)acetonitrile (27)],740 nM
4,N#CC(c1ccc(C(F)(F)F)c(Cl)n1)c1ccc(Cl)cc1F (stereo not given) [2-(4-Chloro-2-fluorophenyl)-2-(6-chloro-5-(trifluoro-methyl)pyridin-2-yl)acetonitrile (32)],630 nM
5,"N#Cc1cccc(C(C#N)c2ccc(Cl)cc2Cl)n1 (stereo not given) [6-(Cyano(2,4-dichlorophenyl)methyl)picolinonitrile (33)]",290 nM
6,N#CC(c1ccc(Cl)cc1)c1ccccn1 (stereo not given) [2-(4-Chlorophenyl)-2-(pyridin-2-yl)acetonitrile (24)],270 nM
7,"N#CC(c1ccc(C(F)(F)F)c(Cl)n1)c1ccc(Cl)cc1Cl (stereo not given) [2-(6-Chloro-5-(trifluoromethyl)pyridin-2-yl)-2-(2,4-dichlorophenyl)acetonitrile (36)]",970 nM
8,N#CC(c1ccc(C(F)(F)F)cc1)c1cccc(C(F)(F)F)n1 (stereo not given) [2-(4-(Trifluoromethyl)phenyl)-2-(6-(trifluoromethyl)pyridin-2-yl)acetonitrile (29)],140 nM
9,N#CC(c1ccc(C(F)(F)F)cn1)c1ccc(Cl)cc1F (stereo not given) [2-(4-Chloro-2-fluorophenyl)-2-(5-(trifluoromethyl)-pyridin-2-yl)acetonitrile (31)],10 nM
10,N#CC(c1ccc(Cl)cc1)c1ccc(Cl)cn1 (stereo not given) [2-(4-Chlorophenyl)-2-(5-chloropyridin-2-yl) acetonitrile (14)],130 nM
11,N#CC(c1cccc(Cl)n1)c1ccc(Cl)cc1F (stereo not given) [2-(4-Chloro-2-fluorophenyl)-2-(6-chloropyridin-2-yl) acetonitrile (13)],60 nM
12,CC(C)CC(C#N)c1ccc(Cl)cc1 (stereo not given) [2-(4-Chlorophenyl)-4-methylpentanenitrile (39)],290 nM
13,N#CC(c1ccc(C(F)(F)F)cc1)c1cccc(Cl)n1 (stereo not given) [2-(6-Chloropyridin-2-yl)-2-(4-(trifluoromethyl)phenyl)acetonitrile (10)],390 nM
14,N#Cc1cccc(C(C#N)c2ccc(Cl)cc2)n1 (stereo not given) [6-((4-Chlorophenyl)(cyano)methyl)picolinonitrile (17)],180 nM
15,CCCCC(C#N)c1ccc(C(F)(F)F)cc1 (stereo not given) [2-(4-(Trifluoromethyl)phenyl)hexanenitrile (48)],> 10000 nM
16,"N#Cc1ccc(C(C#N)c2ccc(Cl)cc2Cl)nc1 (stereo not given) [6-(Cyano(2,4-dichlorophenyl)methyl)nicotinonitrile (34)]",1800 nM
17,CCCC(C#N)c1ccc(Cl)cc1 (stereo not given) [2-(4-Chlorophenyl)pentanenitrile (37)],5900 nM
18,N#CC(c1ccc(F)cc1)c1cccc(C(F)(F)F)n1 (stereo not given) [2-(4-Fluorophenyl)-2-(6-(trifluoromethyl)pyridin-2-yl) acetonitrile (4)],20 nM
19,CCCCC(C#N)c1ccc(Cl)cc1 (stereo not given) [2-(4-Chlorophenyl)hexanenitrile (38)],1400 nM
20,N#CC(c1ccc(Cl)cc1)c1ncccc1Cl (stereo not given) [2-(4-Chlorophenyl)-2-(3-chloropyridin-2-yl) acetonitrile (15)],10 nM

# Reference: BindingDB's records for doi:10.1021/cb5001586 (The Broad Institute , Cambridge, Massachusetts 02142, …, 2014)
